Format in all cases: functional, cell-based
Experiment [1] concerns the target T1, Taste receptor type 2 member 10 (Homo sapiens) (UniProt Q9NYW0).
T1 sequence (whole entry): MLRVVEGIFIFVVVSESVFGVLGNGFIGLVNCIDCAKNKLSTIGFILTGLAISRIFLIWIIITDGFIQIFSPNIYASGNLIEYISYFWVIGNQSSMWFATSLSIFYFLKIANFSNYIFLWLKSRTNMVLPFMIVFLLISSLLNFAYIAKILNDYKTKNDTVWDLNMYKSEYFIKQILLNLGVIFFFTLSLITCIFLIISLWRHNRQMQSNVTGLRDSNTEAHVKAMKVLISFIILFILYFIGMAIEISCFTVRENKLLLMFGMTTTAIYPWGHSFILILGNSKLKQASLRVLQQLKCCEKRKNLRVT
Briefly: Activation of full-length human TAS2R10 expressed in HEK293T/Galpha16-gustducin 44 cells assessed as effect on calcium flux by measuring deltaF/F0 ratio at 100 mM by Fluo-4 dye based FLIPR assay.

The target of experiment [2] is T2, Taste receptor type 2 member 31 (Homo sapiens) (UniProt P59538).
T2 sequence (whole entry): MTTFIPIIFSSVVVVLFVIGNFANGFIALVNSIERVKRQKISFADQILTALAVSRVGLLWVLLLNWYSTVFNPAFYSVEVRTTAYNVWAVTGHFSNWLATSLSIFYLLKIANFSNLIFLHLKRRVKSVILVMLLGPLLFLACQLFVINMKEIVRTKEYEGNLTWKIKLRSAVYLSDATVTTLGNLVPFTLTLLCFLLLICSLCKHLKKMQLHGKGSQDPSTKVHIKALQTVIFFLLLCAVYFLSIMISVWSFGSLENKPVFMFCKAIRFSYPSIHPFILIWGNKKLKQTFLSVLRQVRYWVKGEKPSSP
Briefly: Activation of full-length human TAS2R44 expressed in HEK293T/Galpha16-gustducin 44 cells assessed as effect on calcium flux by measuring deltaF/F0 ratio at 1.5625 mM by Fluo-4 dye based FLIPR assay (reference value: 0.017 +/ - 0.008). (Calcium assays in cells follow changes in intracellular calcium, usually with a dye or a luminescent sensor.)

Experiment [3] concerns the target T1, Taste receptor type 2 member 10 (Homo sapiens). Put plainly: Activation of full-length human TAS2R10 expressed in HEK293T/Galpha16-gustducin 44 cells assessed as effect on calcium flux by measuring deltaF/F0 ratio at 0.7813 mM by Fluo-4 dye based FLIPR assay.
The target is the same in experiment [4]. Put plainly: Activation of full-length human TAS2R10 expressed in HEK293T/Galpha16-gustducin 44 cells assessed as effect on calcium flux by measuring deltaF/F0 ratio by Fluo-4 dye based FLIPR assay.
For experiment [5] the target is unchanged. Put plainly: Activation of full-length human TAS2R10 expressed in HEK293T/Galpha16-gustducin 44 cells assessed as effect on calcium flux by measuring deltaF/F0 ratio at 0.3906 mM by Fluo-4 dye based FLIPR assay.
The target in experiment [6] is T3, Taste receptor type 2 member 1 (Homo sapiens) (UniProt Q9NYW7).
T3 sequence (whole entry): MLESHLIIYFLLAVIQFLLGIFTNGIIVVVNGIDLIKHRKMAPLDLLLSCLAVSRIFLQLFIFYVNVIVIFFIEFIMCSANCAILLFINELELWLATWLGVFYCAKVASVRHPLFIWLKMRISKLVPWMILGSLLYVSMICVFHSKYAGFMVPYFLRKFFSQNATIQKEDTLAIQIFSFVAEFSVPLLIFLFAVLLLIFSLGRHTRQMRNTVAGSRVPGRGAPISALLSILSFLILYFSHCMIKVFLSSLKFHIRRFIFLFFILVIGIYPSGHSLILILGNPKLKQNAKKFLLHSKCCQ
Put plainly: Activation of full-length human TAS2R1 expressed in HEK293T/Galpha16-gustducin 44 cells assessed as effect on calcium flux by measuring deltaF/F0 ratio at 50 mM by Fluo-4 dye based FLIPR assay.

The target in experiment [7] is T4, Taste receptor type 2 member 46 (Homo sapiens) (UniProt P59540).
T4 sequence (whole entry): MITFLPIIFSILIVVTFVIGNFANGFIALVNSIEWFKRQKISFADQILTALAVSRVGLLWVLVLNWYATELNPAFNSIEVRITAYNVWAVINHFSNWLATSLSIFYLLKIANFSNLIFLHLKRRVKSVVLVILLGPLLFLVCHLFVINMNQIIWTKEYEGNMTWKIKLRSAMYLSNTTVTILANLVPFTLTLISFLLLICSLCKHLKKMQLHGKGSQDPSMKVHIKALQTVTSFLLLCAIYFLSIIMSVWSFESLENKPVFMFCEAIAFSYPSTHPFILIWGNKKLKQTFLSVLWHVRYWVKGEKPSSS
Put plainly: Activation of full-length human TAS2R46 expressed in HEK293T/Galpha16-gustducin 44 cells assessed as effect on calcium flux by measuring deltaF/F0 ratio at 1.5625 mM by Fluo-4 dye based FLIPR assay.

The target in experiment [8] is T2, Taste receptor type 2 member 31 (Homo sapiens). Briefly: Activation of full-length human TAS2R44 expressed in HEK293T/Galpha16-gustducin 44 cells assessed as effect on calcium flux by measuring deltaF/F0 ratio at 12.5 mM by Fluo-4 dye based FLIPR assay (reference value: […] +/ - 0.014).
The target in experiment [9] is T3, Taste receptor type 2 member 1 (Homo sapiens). Briefly: Activation of full-length human TAS2R1 expressed in HEK293T/Galpha16-gustducin 44 cells assessed as effect on calcium flux by measuring deltaF/F0 ratio at 12.5 mM by Fluo-4 dye based FLIPR assay.
For experiment [10], the target named is T4, Taste receptor type 2 member 46 (Homo sapiens). Put plainly: Activation of full-length human TAS2R46 expressed in HEK293T/Galpha16-gustducin 44 cells assessed as effect on calcium flux by measuring deltaF/F0 ratio at 0.3906 mM by Fluo-4 dye based FLIPR assay.
Experiment [11] concerns the target T1, Taste receptor type 2 member 10 (Homo sapiens). Put plainly: Activation of full-length human TAS2R10 expressed in HEK293T/Galpha16-gustducin 44 cells assessed as effect on calcium flux by measuring deltaF/F0 ratio at 6.25 mM by Fluo-4 dye based FLIPR assay.
The target is the same in experiment [12]. Put plainly: Activation of full-length human TAS2R10 expressed in HEK293T/Galpha16-gustducin 44 cells assessed as effect on calcium flux by measuring deltaF/F0 ratio at 50 mM by Fluo-4 dye based FLIPR assay.
Experiment [13] deals with T2, Taste receptor type 2 member 31 (Homo sapiens). Put plainly: Activation of full-length human TAS2R44 expressed in HEK293T/Galpha16-gustducin 44 cells assessed as effect on calcium flux by measuring deltaF/F0 ratio at 6.25 mM by Fluo-4 dye based FLIPR assay (reference value: 0.017 +/ - 0.009).
Experiment [14] addresses T1, Taste receptor type 2 member 10 (Homo sapiens). Put plainly: Activation of full-length human TAS2R10 expressed in HEK293T/Galpha16-gustducin 44 cells assessed as effect on calcium flux by measuring deltaF/F0 ratio at 25 mM by Fluo-4 dye based FLIPR assay.
The target of experiment [15] is T2, Taste receptor type 2 member 31 (Homo sapiens). Put plainly: Activation of full-length human TAS2R44 expressed in HEK293T/Galpha16-gustducin 44 cells assessed as effect on calcium flux by measuring deltaF/F0 ratio at 0.3906 mM by Fluo-4 dye based FLIPR assay (reference value: […] +/ - 0.002).
For experiment [16], the target named is T4, Taste receptor type 2 member 46 (Homo sapiens). Put plainly: Activation of full-length human TAS2R46 expressed in HEK293T/Galpha16-gustducin 44 cells assessed as effect on calcium flux by measuring deltaF/F0 ratio at 12.5 mM by Fluo-4 dye based FLIPR assay.

With `OC[C@H]1O[C@H](O[C@]2(CCl)O[C@H](CCl)[C@@H](O)[C@@H]2O)[C@H](O)[C@@H](O)[C@H]1Cl` [SUCRALOSE], the Ratio came to 0.437 in experiment [1]; 0.026 in [2]; 0.05 in [3]; 0.05 in experiment [5]; 0.197 in [6]; 0.035 in experiment [7]. The Ratio stood at 0.109 in experiment [8]; 0.072 in experiment [9]; 0.041 in [10]; 0.053 in experiment [11]; 0.212 in experiment [12]; 0.059 in experiment [13]. Moreover, the Ratio in experiment [14] turned out to be 0.087; in [15], 0.023; in [16] it was 0.075. For the same compound, the Activity entry in [4] was “Dose-dependent effect”.

The record behind these values is ChEMBL document CHEMBL4417621, “Methods to identify tas2r modulators” (2013).
